“Also recorded” adds a separate entry of the source. Read-outs that look alike come from different tables or passages of the source.
Key:
FVB mice = assay: Marble burying; details: mouse, in vivo
Method: For measurement of marble burying (FIG. 7), FVB mice were placed individually, for 10 min, in clean boxes (6 in. ×10 in. ×5 in.) containing 18 clear marbles atop fresh home-bedding. Marbles buried (i.e., marbles 50% covered with bedding) were calculated after the test session.

D2 receptors = molecular target: T1, D2 receptors (Homo sapiens, UniProt P14416); assay: Affinity at dopamine D2 receptors; type: binding
T1 construct: host or cells: HEK293, transient
T1 sequence (P14416 whole entry): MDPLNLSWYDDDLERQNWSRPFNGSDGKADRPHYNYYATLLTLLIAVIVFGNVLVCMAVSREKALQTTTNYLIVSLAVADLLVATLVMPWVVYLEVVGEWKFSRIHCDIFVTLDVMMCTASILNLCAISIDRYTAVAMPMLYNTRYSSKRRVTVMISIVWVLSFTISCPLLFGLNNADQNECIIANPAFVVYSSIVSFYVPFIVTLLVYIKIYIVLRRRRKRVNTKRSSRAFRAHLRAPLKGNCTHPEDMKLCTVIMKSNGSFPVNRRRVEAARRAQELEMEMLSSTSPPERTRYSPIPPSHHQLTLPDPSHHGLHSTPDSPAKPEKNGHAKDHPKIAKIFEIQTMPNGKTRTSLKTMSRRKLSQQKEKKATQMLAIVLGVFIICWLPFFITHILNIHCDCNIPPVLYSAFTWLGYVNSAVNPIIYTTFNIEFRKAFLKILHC

C58/J mice = assay: Idiopathic stereotypic jumping; type: in vivo, mouse; details: dose-dependent; listed as (2S)-5-FPT, HCl
C57BI/6J mice [1] = assay: MK-801 elicited stereotypic rotations and hyperlocomotion; type: in vivo, mouse
Text: Regarding glutamate neurotransmission in stereotypy, the NMDA receptor antagonist, MK-801, characteristically elicits stereotypic rotations that appear to mimic monogenetic stereotypy observed in Fmr1 KO mice. Furthermore, mutations and autoantibodies of the NMDA glutamate receptor that decrease its function are causally linked to ASD, intellectual disabilities, and psychiatric symptoms in humans.

[2] = test system: Fmr1 knockout and wild-type mice; assay: c-Fos immunohistochemistry in brain of wild-type and Fmr1 knockout mice; type: in vivo, mouse; details: for c-Fos expression in the inferior colliculus: juvenile Fmr1 knockout mice, 30 seconds 120 dB alarm
Method: Brains are excised and post-fixed overnight in 4% paraformaldehyde, followed by 20% glycerol in TBS for at least 24 hrs. Coronal sections (40 μm) traversing regions of interest then be collected using a Leica CM1950 cryostat, and placed in cold TBS. c-Fos IHC is performed using free-floating IHC methods as have been previously described, but with a new primary antibody. A protocol with the Abcam [2H2] (ab208942) mouse monoclonal antibody has been recently optimized, which has essentially no cross-reactivity. An HRP-conjugated secondary antibody is used for visualization by the biotin-streptavidin technique using 3,3′-diaminobenzidine as the chromagen (Vectastain Elite, Vector Laboratories). Examination of c-Fos expression in frontal cortex, hypothalamus, nucleus accumbens, ventral tegmental area, amygdala, BNST, and hippocampus are conducted.
On the basis of the distribution of FMRP (Fragile X mental retardation protein) in the adult mouse brain and considering neural systems implicated in cognitive and neuropsychiatric symptoms (e.g., anxiety, sensory hypersensitivity, and social deficits) present in FXS and ASD, the effects of FPT were evaluated on c-Fos expression in the hippocampus (CA1, CA3, and dentate gyrus (DG)), the basolateral amygdala (ventral (BLAv), posterior (BLAp), and anterior (BLAa)), the somatosensory (SS) cortex, the hypothalamus (periventricular hypothalamic nucleus, intermediate (PVi), posterior hypothalamic nucleus (PH), and dorsomedial nucleus of the hypothalamus (DMH)), the paraventricular nucleus of the thalamus (PVT), and the ventral retrosplenial area (RSPv). Shown in FIG. 15A and FIG. 15B are results from analyses of c-Fos expression in CA3 and the BLAa, respectively. There were no main effects of the independent variables on c-Fos in CA3; however, there was a significant treatment effect in BLAa (F(1, 12)=14.22, P=0.0027). […] The effect was large, but the difference was not statistically significant (P=0.0871, d=1.54).

5HT1A = molecular target: T2, 5HT1A (Homo sapiens, UniProt P08908); assay: 5HT1A function, Gαi cAMP signaling (CHO cells); type: cell-based
T2 sequence (P08908 1-422): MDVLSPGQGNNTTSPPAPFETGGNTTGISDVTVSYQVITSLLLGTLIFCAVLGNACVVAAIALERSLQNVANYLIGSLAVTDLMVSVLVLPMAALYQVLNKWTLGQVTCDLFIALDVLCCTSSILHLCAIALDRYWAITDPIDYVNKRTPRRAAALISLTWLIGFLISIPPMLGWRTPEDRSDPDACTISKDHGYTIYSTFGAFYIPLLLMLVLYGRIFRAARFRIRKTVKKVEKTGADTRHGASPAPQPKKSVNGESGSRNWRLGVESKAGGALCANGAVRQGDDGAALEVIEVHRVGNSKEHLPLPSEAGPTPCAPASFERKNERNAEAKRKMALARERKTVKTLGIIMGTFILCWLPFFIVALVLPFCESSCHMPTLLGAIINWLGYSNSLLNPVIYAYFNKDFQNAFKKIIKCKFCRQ

C57BI/6J mice [3] = assay: Social interactions between littermates; type: in vivo, mouse; details: 5.6 mg/kg
Text: After behavioral testing was complete, blind scorers categorized mice into two groups based on number of rears and initiated social interactions, and the two groups differentiated vehicle from (2S)-5-FPT-treated mice with 100% accuracy.

5HT7 = 5HT7 (Homo sapiens, UniProt P34969); assay: Affinity (Ki) at 5HT7, HEK293 cells stably expressing 5HT7
Sequence of 5HT7 (P34969 whole entry): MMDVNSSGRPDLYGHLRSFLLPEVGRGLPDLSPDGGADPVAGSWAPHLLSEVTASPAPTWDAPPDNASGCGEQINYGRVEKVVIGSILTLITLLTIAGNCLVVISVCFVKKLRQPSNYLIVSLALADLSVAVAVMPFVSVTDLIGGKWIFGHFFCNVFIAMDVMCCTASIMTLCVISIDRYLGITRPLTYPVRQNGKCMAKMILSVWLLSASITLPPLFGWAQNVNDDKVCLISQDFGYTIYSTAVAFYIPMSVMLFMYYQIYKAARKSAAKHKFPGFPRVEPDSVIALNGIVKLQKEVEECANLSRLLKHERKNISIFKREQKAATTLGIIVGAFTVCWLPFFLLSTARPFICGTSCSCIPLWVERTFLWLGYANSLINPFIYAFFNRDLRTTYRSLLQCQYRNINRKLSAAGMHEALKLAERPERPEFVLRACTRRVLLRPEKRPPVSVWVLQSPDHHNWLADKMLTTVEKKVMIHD

50 CNS/peripheral sites = assay: NIMH PDSP / NIDA evaluation at 50 CNS/peripheral sites; type: binding
[4] = test system: mice (C57BL/6J, FVB, C58/J); assay: Locomotor behavior, compound on its own; type: in vivo, mouse; details: compound on its own or in the DOI assay; listed as (2S)-5-FPT, HCl
5HT2C receptors = molecular target: T3, 5HT2C receptors (Homo sapiens, UniProt P28335); assay: 5HT2C functional assay; type: cell-based; details: read-out: EC50 at 5HT2C receptors (agonist)
T3 construct: host or cells: HEK293, transient
T3 sequence (P28335 33-458): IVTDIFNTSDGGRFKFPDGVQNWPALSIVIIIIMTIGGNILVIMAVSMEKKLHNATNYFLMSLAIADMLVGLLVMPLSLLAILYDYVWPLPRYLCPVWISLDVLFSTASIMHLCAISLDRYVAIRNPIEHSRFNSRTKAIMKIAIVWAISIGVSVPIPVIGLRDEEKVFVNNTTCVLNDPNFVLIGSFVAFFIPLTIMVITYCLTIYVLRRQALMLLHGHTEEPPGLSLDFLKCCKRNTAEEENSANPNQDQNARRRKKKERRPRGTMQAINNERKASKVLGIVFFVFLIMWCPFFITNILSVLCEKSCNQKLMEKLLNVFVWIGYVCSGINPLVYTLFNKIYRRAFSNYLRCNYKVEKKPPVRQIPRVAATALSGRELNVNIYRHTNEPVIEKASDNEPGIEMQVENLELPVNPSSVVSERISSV

Structure (SMILES): CN(C)[C@H]1CCc2c(cccc2-c2ccccc2F)C1.Cl [(S)-5-FPT, (2S)-5-(2-fluorophenyl)-N,N-dimethyl-1,2,3,4-tetrahydronaphthalen-2-amine HCl]
- Marble burying (repetitive behavior) (FVB mice): reduces or eliminates repetitive behavior in all models
- Affinity at D2 receptors (D2 receptors): poor affinity
- Stereotypic jumping (C58/J mice): potently eliminated stereotypic jumping; also recorded: greater efficacy in this model than the recently reported mGluR5 negative allosteric modulator, GRN-529
- Hyperlocomotion caused by MK-801 (C57BI/6J mice [1]; 5.6 mg/kg): significantly decreased hyperlocomotion
- MK-801 elicited stereotypical rotations (C57BI/6J mice [1]; 5.6 mg/kg): significantly reduced stereotypical rotations
- Stereotypic rotational behavior, compound alone (C57BI/6J mice [1]; without MK-801): neither (2S)-5-FPT nor AMP caused stereotypic rotational behavior
- c-Fos expression in CA3 region of the hippocampus ([2]; WT and KO mice): did not significantly increase c-Fos expression
- c-Fos expression in the inferior colliculus [2]: did not affect the number of c-Fos positive cells
- c-Fos expression in the inferior colliculus ([2]; listed as FPT, HCl): no effect
- c-Fos expression in other brain regions ([2]; mouse, in vivo): did not significantly alter c-Fos expression in any other brain region examined
- Function at 5HT1A (5HT1A): Partial agonist
- Grooming (C57BI/6J mice [3]): decreasing grooming
- Number of initiated social interactions (C57BI/6J mice [3]; listed as (2S)-5-FPT, HCl): significantly increases the number of initiated social interactions
- 5-HT7 affinity of (S)-enantiomer over (R)-enantiomer (5HT7): about 80 times
- Ki (5HT7; Affinity Ki ± SEM at 5HT7): 5 nM
- Ki (5HT7; read-out: Affinity Ki ± SEM at 5HT7, HCl): 5.3 ± 2 nM
- Activity at 50 CNS/peripheral sites (50 CNS/peripheral sites): without activity at 50 CNS/peripheral sites
- Locomotor behavior [4]: did not alter locomotion; also recorded: without altering locomotor behavior on its own
- EC50 (5HT2C receptors): 230 nM

Source: patent publication US20230348358A1, “Serotonin Receptor Modulators” (Northeastern University, priority 2020, published 2023)
